Results: paper PMC7578299, “The antiviral effects of baloxavir marboxil against influenza A virus infection in ferrets” (Influenza and Other Respiratory Viruses, 2020)
Where “and” joins values, the source holds several entries; their conditions need not be identical. Identical values can stand only once. Like-named read-outs stand apart in the source and are kept apart here.

Legend:
[1] = Pharmacokinetic analysis in ferrets after a single oral administration of BXM; type: in vivo, ferret
Description: One day prior to administration, group assignment was carried out taking body weight into account. Under isoflurane anesthesia, fasted ferrets (four per group) received BXM (10 or 30 mg/5 mL/kg) suspension orally using an intragastric tube. Blood samples were collected at 0.5, 1, 2, 4, 6, 8, and 24 hours after single oral administration of BXM and centrifuged to obtain plasma. The concentrations of BXA and BXM in plasma were determined by liquid chromatography‐tandem mass spectrometry (LC‐MS/MS). The lower limit of quantification of BXA and BXM in ferret plasma was 0.5 ng/mL. The pharmacokinetic parameters of BXA and BXM were calculated using non‐compartmental analysis module in Phoenix WinNonlin software (version 8.0; Certara LP) (https://onlinehelp.certara.com/phoenix/8.2/topics/nca.htm) based on a non‐compartment model analysis with uniform weighting.

[2] = Stability in plasma, human; type: in vitro ADME; details: incubation of BXM; for % Residual in plasma (BXA, calculated from BXM concentration at 0 min as molar concentration): mean of duplicate; for % Residual in plasma Individual value (BXA, from BXM concentration at 0 minutes as molar concentration): duplicates
Description: (§1) Approximately 30 mL of blood from Japanese male healthy volunteers was collected and centrifuged to obtain plasma. Blood samples from ferrets, rats, dogs, and monkeys were collected under anesthesia and centrifuged to obtain plasma. BXM was added to reach a final concentration of 200 ng/mL to all pooled plasma samples per species. After incubation for 5, 15, and 30 minutes at 37°C, twofold volume of ice‐cold acetonitrile/methanol (1:1, v/v) was added to the plasma samples to stop further reactions, which were then centrifuged at 1800 g for 10 minutes prior to LC‐MS/MS analysis of BXM in the supernatants.

[3] = Stability in plasma, ferret; type: in vitro ADME; details: incubation of BXM; for % Residual in plasma (BXA, calculated from BXM concentration at 0 min as molar concentration): mean of duplicate; for % Residual in plasma Individual value (BXA, from BXM concentration at 0 minutes as molar concentration): duplicates
Description: as §1

Stability in plasma, rat = type: in vitro ADME; details: incubation of BXM; for % Residual in plasma (BXA, calculated from BXM concentration at 0 min as molar concentration): mean of duplicate; for % Residual in plasma Individual value (BXA, from BXM concentration at 0 minutes as molar concentration): duplicates
Description: as §1

Stability in plasma, dog = type: in vitro ADME; details: incubation of BXM; for % Residual in plasma (BXA, calculated from BXM concentration at 0 min as molar concentration): mean of duplicate; for % Residual in plasma Individual value (BXA, from BXM concentration at 0 minutes as molar concentration): duplicates
Description: as §1

[4] = Stability in plasma, monkey; type: in vitro ADME; details: incubation of BXM; for % Residual in plasma (BXA, calculated from BXM concentration at 0 min as molar concentration): mean of duplicate; for % Residual in plasma Individual value (BXA, from BXM concentration at 0 minutes as molar concentration): duplicates
Description: as §1

[5] = 5% SDS water vs 0.5% MC, BXM 10 mg/kg
[6] = single oral BXM 10 mg/kg, 0.5% MC vehicle, mean of three ferrets
[7] = single oral BXM 10 mg/kg, 5% SDS water vehicle, mean of four ferrets
[8] = single oral BXM 10 mg/kg, individual ferrets (Ferret-01 to Ferret-04)
[9] = single oral BXM 10 mg/kg, mean of four ferrets
[10] = single oral BXM 30 mg/kg, 5% SDS water vehicle, mean of four ferrets
[11] = single oral BXM 30 mg/kg, individual ferrets (Ferret-05 to Ferret-08)
[12] = single oral BXM 30 mg/kg, mean of four ferrets

## O=C1c2c(O)c(=O)ccn2N([C@@H]2c3ccccc3SCc3c2ccc(F)c3F)[C@@H]2COCCN12 [BXA, baloxavir acid]
[1]; [5]
  AUC0-24hr, Ratio to 0.5% MC: 7.0
  C24hr, Ratio to 0.5% MC: 13.6
  Cmax, Ratio to 0.5% MC: 4.2
  T1/2, Ratio to 0.5% MC: 1.5
  Tmax, Ratio to 0.5% MC: 3.0
[1]; [6]
  AUC0-24hr: 60.2 ng·h/mL
  C24hr: 0.223 ng/mL
  Cmax: 15.8 ng/mL
  T1/2: 4.60 h
  Tmax: 0.50 h
[1]; [7]
  AUC0-24 h: 421 ± 119 ng·h/mL
  C 24 h: 3.03 ± 2.33 ng/mL and 3.03 ng/mL
  C max: 66.6 ± 14.6 ng/mL
  T 1/2 (terminal elimination half-life): 6.91 ± 3.79 h
  T max: 1.50 ± 0.58 h
[1]; [8]
  AUC0-24hr, individual data: 292 ng·h/mL and 576 ng·h/mL and 439 ng·h/mL and 378 ng·h/mL
  C24hr, individual data: 0.792 ng/mL and 3.90 ng/mL and 1.52 ng/mL and 5.90 ng/mL
  Cmax, individual data: 59.4 ng/mL and 80.1 ng/mL and 77.3 ng/mL and 49.5 ng/mL
  T1/2, individual data: 4.21 h and 6.47 h and 4.57 h and 12.4 h
  Tmax, individual data: 1.00 hr (2×) and 2.00 hr (2×)
[1]; [9]
  AUC0-24 h: 0.871 ± 0.246 µM·h
  C 24 h: 6.26 ± 4.82 nM
[1]; single oral BXM 10 mg/kg, mean of four ferrets, read-out: C max
  Cmax: 138 ± 30 nM
[1]; [10]
  AUC0-24 h: 3240 ± 3240 ng·h/mL
  C 24 h: 9.91 ± 8.77 ng/mL and 9.91 ng/mL
  C max: 365 ± 316 ng/mL
  T 1/2 (terminal elimination half-life): 4.44 ± 0.67 h
  T max: 2.00 ± 1.41 h
[1]; [11]
  AUC0-24hr, individual data: 7580 ng·h/mL and 3840 ng·h/mL and 1040 ng·h/mL and 508 ng·h/mL
  C24hr, individual data: 21.3 ng/mL and 12.3 ng/mL and 3.38 ng/mL and 2.64 ng/mL
  Cmax, individual data: 754 ng/mL and 489 ng/mL and 128 ng/mL and 89.6 ng/mL
  T1/2, individual data: 3.90 h and 4.32 h and 4.12 h and 5.41 h
  Tmax, individual data: 1.00 hr (2×) and 4.00 hr and 2.00 hr
[1]; [12]
  AUC0-24 h: 6.71 ± 6.71 µM·h
  C 24 h: 20.5 ± 18.2 nM
[1]; single oral BXM 30 mg/kg, mean of four ferrets, read-out: C max
  Cmax: 755 ± 653 nM
[2]; 10 min
  % Residual in plasma (BXA, calculated from BXM concentration at 0 min as molar concentration): 8.3%
[2]; 10 minutes
  % Residual in plasma Individual value (BXA, from BXM concentration at 0 minutes as molar concentration): 8.4% and 8.3%
[2]; 20 min
  % Residual in plasma (BXA, calculated from BXM concentration at 0 min as molar concentration): 22.4%
[2]; 20 minutes
  % Residual in plasma Individual value (BXA, from BXM concentration at 0 minutes as molar concentration): 22.4%
[2]; 30 min
  % Residual in plasma (BXA, calculated from BXM concentration at 0 min as molar concentration): 38.1%
[2]; 30 minutes
  % Residual in plasma Individual value (BXA, from BXM concentration at 0 minutes as molar concentration): 38.4% and 37.8%
[3]; 10 min
  % Residual in plasma (BXA, calculated from BXM concentration at 0 min as molar concentration): 4.6%
[3]; 10 minutes
  % Residual in plasma Individual value (BXA, from BXM concentration at 0 minutes as molar concentration): 4.6% and 4.7%
[3]; 20 min
  % Residual in plasma (BXA, calculated from BXM concentration at 0 min as molar concentration): 13.9%
[3]; 20 minutes
  % Residual in plasma Individual value (BXA, from BXM concentration at 0 minutes as molar concentration): 13.8% and 14.1%
[3]; 30 min
  % Residual in plasma (BXA, calculated from BXM concentration at 0 min as molar concentration): 24.9%
[3]; 30 minutes
  % Residual in plasma Individual value (BXA, from BXM concentration at 0 minutes as molar concentration): 24.9% and 25.0%
Stability in plasma, rat; 10 min
  % Residual in plasma (BXA, calculated from BXM concentration at 0 min as molar concentration): 104.6%
Stability in plasma, rat; 10 minutes
  % Residual in plasma Individual value (BXA, from BXM concentration at 0 minutes as molar concentration): 102.8% and 106.3%
Stability in plasma, rat; 20 min
  % Residual in plasma (BXA, calculated from BXM concentration at 0 min as molar concentration): 104.0%
Stability in plasma, rat; 20 minutes
  % Residual in plasma Individual value (BXA, from BXM concentration at 0 minutes as molar concentration): 102.2% and 105.9%
Stability in plasma, rat; 30 min
  % Residual in plasma (BXA, calculated from BXM concentration at 0 min as molar concentration): 103.2%
Stability in plasma, rat; 30 minutes
  % Residual in plasma Individual value (BXA, from BXM concentration at 0 minutes as molar concentration): 103.0% and 103.4%
Stability in plasma, dog; 10 min
  % Residual in plasma (BXA, calculated from BXM concentration at 0 min as molar concentration): 2.8%
Stability in plasma, dog; 10 minutes
  % Residual in plasma Individual value (BXA, from BXM concentration at 0 minutes as molar concentration): 2.8%
Stability in plasma, dog; 20 min
  % Residual in plasma (BXA, calculated from BXM concentration at 0 min as molar concentration): 8.2%
Stability in plasma, dog; 20 minutes
  % Residual in plasma Individual value (BXA, from BXM concentration at 0 minutes as molar concentration): 8.1% and 8.2%
Stability in plasma, dog; 30 min
  % Residual in plasma (BXA, calculated from BXM concentration at 0 min as molar concentration): 15.6%
Stability in plasma, dog; 30 minutes
  % Residual in plasma Individual value (BXA, from BXM concentration at 0 minutes as molar concentration): 15.6%
[4]; 10 min
  % Residual in plasma (BXA, calculated from BXM concentration at 0 min as molar concentration): 9.0%
[4]; 10 minutes
  % Residual in plasma Individual value (BXA, from BXM concentration at 0 minutes as molar concentration): 8.9% and 9.1%
[4]; 20 min
  % Residual in plasma (BXA, calculated from BXM concentration at 0 min as molar concentration): 24.0%
[4]; 20 minutes
  % Residual in plasma Individual value (BXA, from BXM concentration at 0 minutes as molar concentration): 23.5% and 24.6%
[4]; 30 min
  % Residual in plasma (BXA, calculated from BXM concentration at 0 min as molar concentration): 43.0%
[4]; 30 minutes
  % Residual in plasma Individual value (BXA, from BXM concentration at 0 minutes as molar concentration): 44.0% and 42.1%
